Results reported in patent US10189812B2, “Bi-benzyl isoquinoline derivative, preparation method and use thereof in hepatopathy treatment and prevention” (THE KEY LABORATORY OF CHEMISTRY FOR NATURAL PRODUCTS OF …, priority 2014, dated 2019).
Where two headings read alike, the source gives them in different places.

Assays:
Format in all cases: cell-based
[1] = test system: MHCC97L liver cancer cell strains; experiment: Tetrazolium salt reduction method (MTT) on human liver cancer cell strain MHCC97L
Protocol: 3. human liver cancer cell strains MHCC97L model discrimination
(§1) Tested methods: Tetrazolium salt reduction method (MTT)
(1) Inoculating cells: Inoculating cells: A uniform cell suspension was prepared with culture solution containing fetal calf serum (10%). The suspension was implanted into a 96-well cell culture disc by 1000-10000 cells/200 μL per well.
(§2) (2) Culturing cells: The cells were cultured for 3-5 days according to known methods in the art (culturing time depending on experiment objective and requirement).
(§3) (3) Colour response: The cells were cultured for 3-5 days, 20 μl of MTT solution (5 mg/mL, PBS <pH=7.4>) was added in each well, incubated for 4 h. Culture was terminated and the culture suspension was carefully sucked out. As for suspension cells, they need be centrifuged before suspension solution in wells was sucked out. 150 μL of DMSO was added in each well, vibrated for 10 min. The crystal was fully dissolved.
(§4) (4) Colorimetry: Light absorbance values in each well were measured by ELISA at 490 nm and the results were recorded. The cell growth curve was drawn with time as the abscissa and absorbance values as vertical coordinates.
Model principle: Dehydrogenase related to NADP exists in mitochondria of living cell. Yellow MTT is reduced to insoluble blue-purple Formanzan. Dehydrogenase is disappeared in dead cell and MTT can not be reduced. According to reduction extent, action effect of sample on tumor cell is defected.

[2] = test system: PLC/PRF/5 liver cancer cell strains; experiment: Tetrazolium salt reduction method (MTT) on human liver cancer cell strain PLC/PRF/5
Protocol: 2. human liver cancer cell strains PLC/PRF/5 model discrimination
as §1
(1) Inoculating cells: A uniform cell suspension was prepared with culture solution containing fetal calf serum (10%). The suspension was implanted into a 96-well cell culture disc by 1000-10000 cells/200 μL per well.
as §2, §3, §4
Model principle: Dehydrogenase related to NADP exists in mitochondria of living cell. Yellow MIT is reduced to insoluble blue-purple Formanzan. Dehydrogenase is disappeared in dead cell and MIT can not be reduced. According to reduction extent, action effect of sample on tumor cell is defected.

BEL-7402 cell = experiment: Sulforhodamine B (SRB) growth inhibition of human liver cancer cell strain BEL-7402; settings: for inhibition at 10 µM: Homo sapiens, read-out: BEL-7402/ Inhibition (%)
Protocol: 1. human liver cancer cell strains BEL-7402 model discrimination
Tested methods: Sulforhodamine B (SRB)
According to growth rate of tumor cells, the adherent cells in logarithmic growth phase was implanted into a 96-well cell culture plate by 200 μL per well. Adhering for 24 h before dosing, each concentration was set with 3 holes. The corresponding concentration of saline as for control group and withering holes without cells. The tumor cells were cultured for 72 h under 5% CO2 at 37° C.
The culture plate was takene out, 50 uL of trichloro acetic acid TCA fixed cells which were diluted to 50% (m/v) were added to each well. The plate was kept for 1 h at 4° C. If suspension cells are cultured, 50 uL cold TCA (80%) was added to each well. Final concentration of TCA is 16%, standed for 5 min, kept in a refrigerator for 1 h at 4° C.
Stationary liquid was sucked out, washed by 5 times with distilled water, dried in the air.
After drying in the air, 100 μL of SRB solution was added in each well, kept for 10-30 min at the room temperature.
The supernatant was sucked out, washed by 5 times with acetic acid (1%), dried in the air.
150 μL Tris solution was added in each well, vibrated for 5 min on the tablet oscillator.
OD values were measured with ELISA at 515 nm, zeroed with blank control.
Growth inhibition ratio of tumor cells was calculated according to the following formula: Inhibition=[(OD515control hole−OD515dosing hole)/OD515control hole]×100%.
According to inhibition ratio of different concentration, IC50 was determined with Logit method. Above experiment was repeated 2-3 times to give average IC50 values as for final index.
Model principle: SRB is a kind of protein binding dye which can be binded with basic amino acid in biological macromolecules. OD values in specific wavelength range have linear relationship with cell number. According to OD values of binding substance, action effect of sample on tumor cell is defected.

[3] = Homo sapiens, MHCC97L, read-out: MHCC97L IC50 (μM)
[4] = Homo sapiens, PLC-PRF-5, read-out: PLC/PRF/5 IC50 (μM)
[5] = MTT, cells cultured 3-5 days, read-out: MHCC97L IC50
[6] = MTT, cells cultured 3-5 days, read-out: PLC/PRF/5 IC50
[7] = 1.00 × 10^−5 mol/L, SRB, cells cultured 72 h
[8] = Bel-7402, 1.00 × 10^−5 mol/L, SRB, cells cultured 72 h

| Compound | IC50 [1, 5] [µM] | IC50 [2, 6] [µM] | IC50 [1, 3] [µM] | IC50 [2, 4] [µM] | inhibition at 10 µM (BEL-7402 cell; Bel-7402, 72 h) [%] | BEL-7402/ Inhibition (%) (BEL-7402 cell; [7]) | inhibition at 10 µM (BEL-7402 cell; [8]) [%] |
| --- | --- | --- | --- | --- | --- | --- | --- |
| C=CC(=O)Nc1cc(OC)c2cc1C[C@H]1c3c(cc(OC)c(OC)c3Oc3cc4c(cc3OC)CCN(C)[C@H]4Cc3ccc(cc3)O2)CCN1C [Compound H-10] | – | – | 10.4 | 10.7 | 87.74 ± 0.63 | – | – |
| COc1cccc2c1C(=O)c1c(O)c3c(c(O)c1C2=O)C[C@@](O)(C(=O)CO)C[C@@H]3O[C@H]1C[C@H](N)[C@H](O)[C@H](C)O1 [Doxorubicin, reference compound] | – | – | – | – | – | – | 57.8 ± 4.05 |
| COc1ccc2cc1Oc1ccc(cc1)C[C@H]1c3cc(c(OC)cc3CCN1C)Oc1c(O)c(OC)cc3c1[C@H](C2)N(C)CC3 [Tetrandrine B, reference compound] | – | – | 12.8 | 16.9 | 23.9 ± 3.65 | – | – |
| COc1ccc2cc1Oc1ccc(cc1)C[C@H]1c3cc(c(OC)cc3CCN1C)Oc1c(OC)c(OC)cc3c1[C@H](C2)N(C)CC3 [Tetrandrine, 6,6′,7,12-tetramethoxy-2,2′-dimethyl berbamine, reference compound] | – | – | – | – | – | – | 53.9 ± 3.72 |

Further lines, with some results ahead:

| IC50 [1, 5] [µM] | IC50 [2, 6] [µM] | Compound | IC50 [1, 3] [µM] | IC50 [2, 4] [µM] | inhibition at 10 µM (BEL-7402 cell; Bel-7402, 72 h) [%] | BEL-7402/ Inhibition (%) (BEL-7402 cell; [7]) | inhibition at 10 µM (BEL-7402 cell; [8]) [%] |
| --- | --- | --- | --- | --- | --- | --- | --- |
| 2.1 | 2.5 | COc1cc(NC(=O)c2ccco2)c2cc1Oc1ccc(cc1)C[C@H]1c3cc(c(OC)cc3CCN1C)Oc1c(OC)c(OC)cc3c1[C@H](C2)N(C)CC3 [Compound H-15] | – | – | – | 87.23 ± 2.26 | – |
| 11.9 | 9 | COc1cc(NC(=O)c2cccs2)c2cc1Oc1ccc(cc1)C[C@H]1c3cc(c(OC)cc3CCN1C)Oc1c(OC)c(OC)cc3c1[C@H](C2)N(C)CC3 [Compound H-16] | – | – | – | 93.40 ± 4.70 | – |
| 9.4 | 11.6 | COc1cc(NS(=O)(=O)c2ccc([N+](=O)[O-])cc2)c2cc1Oc1ccc(cc1)C[C@H]1c3cc(c(OC)cc3CCN1C)Oc1c(OC)c(OC)cc3c1[C@H](C2)N(C)CC3 [Compound H-19] | – | – | – | 92.70 ± 0.55 | – |
| 12.5 | 11 | COc1cc(NS(=O)(=O)c2ccc(C)cc2)c2cc1Oc1ccc(cc1)C[C@H]1c3cc(c(OC)cc3CCN1C)Oc1c(OC)c(OC)cc3c1[C@H](C2)N(C)CC3 [Compound H-20] | – | – | – | 93.91 ± 0.40 | – |
| 8.2 | 9.1 | COc1cc(NS(=O)(=O)c2ccc(Cl)cc2)c2cc1Oc1ccc(cc1)C[C@H]1c3cc(c(OC)cc3CCN1C)Oc1c(OC)c(OC)cc3c1[C@H](C2)N(C)CC3 [Compound H-24] | – | – | – | 90.01 ± 2.82 | – |
| 10.8 | 12.2 | COc1cc(NC(=O)N2CCOCC2)c2cc1Oc1ccc(cc1)C[C@H]1c3cc(c(OC)cc3CCN1C)Oc1c(OC)c(OC)cc3c1[C@H](C2)N(C)CC3 [Compound H-26] | – | – | – | 89.60 ± 2.01 | – |
